# Test results reported in patent publication US11771738B2 (Zoetis Services LLC, priority 2018, dated 2023).
# Where two headings read alike, the source gives them in different places. Marks after values point to notes of the source that are not given here.
# Legend:
# Assay type in all cases: cell-based
# D. immitis L4 larvae = assay: Dirofilaria immitis, L4 Stage (DiL4) In Vitro Assay; details: for minimal effective concentration: Dirofilaria immitis, 72 h, read-out: DiL4 MED, Minimum Effective Dose, D. immitis L4 larvae motility, in vitro; for DiMf/DiL4: larval stage selectivity, ratio of DiMf MED to DiL4 MED
# [1] = tested on: third stage larvae of Haemonchus contortus; assay: Haemonchus contortus, Larvae Stage 3 (HcL3) In Vitro Assay; details: for minimal effective concentration: Haemonchus contortus, 96 h; for HcL3 MED (symbol after Ex#): approximately 96 hours incubation
# [2] = tested on: microfilariae of Dirofilaria immitis; assay: Dirofilaria immitis, Microfilaria (DiMf) In Vitro Assay; details: Dirofilaria immitis, 72 h, read-out: DiMf MED, Minimum Effective Dose, D. immitis microfilariae motility, in vitro
# [3] = read-out: HcL3 MED, Minimum Effective Dose, H. contortus third stage larvae, approximately 96 hours
# [4] = multiple-resistant field isolate
smiles,measurement,setting,value
"COc1cccc(Cc2ccc(C[C@H]3OC(=O)[C@H](CC(C)C)N(C)C(=O)[C@@H](C)OC(=O)[C@H](CC(C)C)N(C)C(=O)[C@@H](Cc4ccc(Cc5cccc(OC)c5)cc4)OC(=O)[C@H](CC(C)C)N(C)C(=O)[C@@H](C)OC(=O)[C@H](CC(C)C)N(C)C3=O)cc2)c1 [Example 1-5, (3S,6R,9S,12R,15S,18R,21S,24R)-3,9,15,21-tetraisobutyl-6,18-bis(4-(3-methoxybenzyl)benzyl)-4,10,12,16,22,24-hexamethyl-1,7,13,19-tetraoxa-4,10,16,22-tetraazacyclotetracosan-2,5,8,11,14,17,20,23-octaone]",minimal effective concentration,D. immitis L4 larvae,0.001 µM
same,DiMf/DiL4,D. immitis L4 larvae,500
same,minimal effective concentration,[1]; [3],> 100 µM
same,minimal effective concentration,[2],0.5 µM
"COc1ccccc1Cc1ccc(C[C@H]2OC(=O)[C@H](CC(C)C)N(C)C(=O)[C@@H](C)OC(=O)[C@H](CC(C)C)N(C)C(=O)[C@@H](Cc3ccc(Cc4ccccc4OC)cc3)OC(=O)[C@H](CC(C)C)N(C)C(=O)[C@@H](C)OC(=O)[C@H](CC(C)C)N(C)C2=O)cc1 [Example 1-11, (3S,6R,9S,12R,15S,18R,21S,24R)-3,9,15,21-tetraisobutyl-6,18-bis(4-(2-methoxybenzyl)benzyl)-4,10,12,16,22,24-hexamethyl-1,7,13,19-tetraoxa-4,10,16,22-tetraazacyclotetracosan-2,5,8,11,14,17,20,23-octaone]",minimal effective concentration,D. immitis L4 larvae,0.001 µM
same,DiMf/DiL4,D. immitis L4 larvae,300
same,minimal effective concentration,[1]; [3],> 10 µM
same,minimal effective concentration,[2],0.3 µM
"CC(C)C[C@H]1C(=O)O[C@H](Cc2ccc(C(c3ccc(F)c(F)c3)n3cccn3)cc2)C(=O)N(C)[C@@H](CC(C)C)C(=O)O[C@H](C)C(=O)N(C)[C@@H](CC(C)C)C(=O)O[C@H](Cc2ccc(C(c3ccc(F)c(F)c3)n3cccn3)cc2)C(=O)N(C)[C@@H](CC(C)C)C(=O)O[C@H](C)C(=O)N1C (stereo partly drawn) [Example 1-18, (3S,6R,9S,12R,15S,18R,21S,24R)-6,18-bis(4-((3,4-difluorophenyl)(1H-pyrazol-1-yl)methyl)benzyl)-3,9,15,21-tetraisobutyl-4,10,12,16,22,24-hexamethyl-1,7,13,19-tetraoxa-4,10,16,22-tetraazacyclotetracosan-2,5,8,11,14,17,20,23-octaone]",minimal effective concentration,D. immitis L4 larvae,< 0.0001 µM
same,DiMf/DiL4,D. immitis L4 larvae,>30
same,minimal effective concentration,[1]; [3],> 100 µM
same,minimal effective concentration,[2],0.003 µM
"Cc1cnsc1Cc1ccc(C[C@H]2OC(=O)[C@H](CC(C)C)N(C)C(=O)[C@@H](C)OC(=O)[C@H](CC(C)C)N(C)C(=O)[C@@H](Cc3ccc(Cc4sncc4C)cc3)OC(=O)[C@H](CC(C)C)N(C)C(=O)[C@@H](C)OC(=O)[C@H](CC(C)C)N(C)C2=O)cc1 [Example 3-288, (3S,6R,9S,12R,15S,18R,21S,24R)-3,9,15,21-tetraisobutyl-4,6,10,16,18,22-hexamethyl-12,24-bis(4-((4-methylisothiazol-5-yl)methyl)benzyl)-1,7,13,19-tetraoxa-4,10,16,22-tetraazacyclotetracosan-2,5,8,11,14,17,20,23-octaone]",DiL4 MED,"D. immitis L4 larvae; Minimum Effective Dose, D. immitis L4 larvae motility, in vitro, listed as (3-288)",0.1 nM
same,DiMf/DiL4,D. immitis L4 larvae; listed as (3-288),30
same,minimal effective concentration,"[1]; read-out: HcL3 MED, Haemonchus contortus third stage larvae in vitro, class mark appended to the Ex # in Table 3",< 1 µM
same,minimal effective concentration,"[1]; read-out: HcL3 MED, approximately 96 hours incubation, multiple-resistant field isolate",≤ 1 µM
same,HcL3 MED,"[1]; Minimum Effective Dose, H. contortus third stage larvae, approximately 96 hours, listed as (3-288)",0.2 µM
"COc1ncc(Cl)cc1Cc1ccc(C[C@H]2OC(=O)[C@H](CC(C)C)N(C)C(=O)[C@@H](C)OC(=O)[C@H](CC(C)C)N(C)C(=O)[C@@H](Cc3ccc(Cc4cc(Cl)cnc4OC)cc3)OC(=O)[C@H](CC(C)C)N(C)C(=O)[C@@H](C)OC(=O)[C@H](CC(C)C)N(C)C2=O)cc1 [Example 3-332, (3S,6R,9S,12R,15S,18R,21S,24R)-6,18-bis(4-((5-chloro-2-methoxypyridin-3-yl)methyl)benzyl)-3,9,15,21-tetraisobutyl-4,10,12,16,22,24-hexamethyl-1,7,13,19-tetraoxa-4,10,16,22-tetraazacyclotetracosan-2,5,8,11,14,17,20,23-octaone]",minimal effective concentration,D. immitis L4 larvae,0.0005 µM
same,DiMf/DiL4,D. immitis L4 larvae,548
same,minimal effective concentration,[2],0.3 µM
CC(C)C[C@H]1C(=O)O[C@H](Cc2ccc(Cc3ccsn3)cc2)C(=O)N(C)[C@@H](CC(C)C)C(=O)O[C@H](C)C(=O)N(C)[C@@H](CC(C)C)C(=O)O[C@H](Cc2ccccc2)C(=O)N(C)[C@@H](CC(C)C)C(=O)O[C@H](C)C(=O)N1C [Example 4-36],HcL3 MED (symbol after Ex#),[1]; [4],4-36^ (Examples with a carrot (^) have HcL3 MED values>1 and ≤3.3 μM)
Cc1cc(Cc2ccc(C[C@H]3OC(=O)[C@H](CC(C)C)N(C)C(=O)[C@@H](C)OC(=O)[C@H](CC(C)C)N(C)C(=O)[C@@H](Cc4ccccc4)OC(=O)[C@H](CC(C)C)N(C)C(=O)[C@@H](C)OC(=O)[C@H](CC(C)C)N(C)C3=O)cc2)n(C)n1 [Example 4-42],HcL3 MED (symbol after Ex#),[1]; [4],4-42^ (Examples with a carrot (^) have HcL3 MED values>1 and ≤3.3 μM)
CC(C)C[C@H]1C(=O)O[C@H](Cc2ccc(Cc3cocn3)cc2)C(=O)N(C)[C@@H](CC(C)C)C(=O)O[C@H](C)C(=O)N(C)[C@@H](CC(C)C)C(=O)O[C@H](Cc2ccccc2)C(=O)N(C)[C@@H](CC(C)C)C(=O)O[C@H](C)C(=O)N1C [Example 4-52],HcL3 MED (symbol after Ex#),[1]; [4],4-52* (Examples with an asterisk (*) have HcL3 MED values≤1 μM)
Cc1scnc1C(O)c1ccc(C[C@H]2OC(=O)[C@H](CC(C)C)N(C)C(=O)[C@@H](C)OC(=O)[C@H](CC(C)C)N(C)C(=O)[C@@H](Cc3ccccc3)OC(=O)[C@H](CC(C)C)N(C)C(=O)[C@@H](C)OC(=O)[C@H](CC(C)C)N(C)C2=O)cc1 (some centres unmarked) [Example 4-56],HcL3 MED (symbol after Ex#),[1]; [4],4-56^ (Examples with a carrot (^) have HcL3 MED values>1 and ≤3.3 μM)
Cc1nc(Cc2ccc(C[C@H]3OC(=O)[C@H](CC(C)C)N(C)C(=O)[C@@H](C)OC(=O)[C@H](CC(C)C)N(C)C(=O)[C@@H](Cc4ccccc4)OC(=O)[C@H](CC(C)C)N(C)C(=O)[C@@H](C)OC(=O)[C@H](CC(C)C)N(C)C3=O)cc2)cs1 [Example 4-66],HcL3 MED (symbol after Ex#),[1]; [4],4-66^ (Examples with a carrot (^) have HcL3 MED values>1 and ≤3.3 μM)
CC(C)C[C@H]1C(=O)O[C@H](Cc2ccc(C(O)c3sccc3Cl)cc2)C(=O)N(C)[C@@H](CC(C)C)C(=O)O[C@H](C)C(=O)N(C)[C@@H](CC(C)C)C(=O)O[C@H](Cc2ccccc2)C(=O)N(C)[C@@H](CC(C)C)C(=O)O[C@H](C)C(=O)N1C (some centres unmarked) [Example 4-77],HcL3 MED (symbol after Ex#),[1]; [4],4-77^ (Examples with a carrot (^) have HcL3 MED values>1 and ≤3.3 μM)
Cc1nc(Cc2ccc(C[C@H]3OC(=O)[C@H](CC(C)C)N(C)C(=O)[C@@H](C)OC(=O)[C@H](CC(C)C)N(C)C(=O)[C@@H](Cc4ccccc4)OC(=O)[C@H](CC(C)C)N(C)C(=O)[C@@H](C)OC(=O)[C@H](CC(C)C)N(C)C3=O)cc2)co1 [Example 4-83],HcL3 MED (symbol after Ex#),[1]; [4],4-83^ (Examples with a carrot (^) have HcL3 MED values>1 and ≤3.3 μM)
Cc1csc(Cc2ccc(C[C@H]3OC(=O)[C@H](CC(C)C)N(C)C(=O)[C@@H](C)OC(=O)[C@H](CC(C)C)N(C)C(=O)[C@@H](Cc4ccccc4)OC(=O)[C@H](CC(C)C)N(C)C(=O)[C@@H](C)OC(=O)[C@H](CC(C)C)N(C)C3=O)cc2)n1 [Example 4-90],HcL3 MED (symbol after Ex#),[1]; [4],4-90^ (Examples with a carrot (^) have HcL3 MED values>1 and ≤3.3 μM)
Cc1nc(C)c(Cc2ccc(C[C@H]3OC(=O)[C@H](CC(C)C)N(C)C(=O)[C@@H](C)OC(=O)[C@H](CC(C)C)N(C)C(=O)[C@@H](Cc4ccccc4)OC(=O)[C@H](CC(C)C)N(C)C(=O)[C@@H](C)OC(=O)[C@H](CC(C)C)N(C)C3=O)cc2)o1 [Example 4-91],HcL3 MED (symbol after Ex#),[1]; [4],4-91^ (Examples with a carrot (^) have HcL3 MED values>1 and ≤3.3 μM)
Cc1cnc(Cc2ccc(C[C@H]3OC(=O)[C@H](CC(C)C)N(C)C(=O)[C@@H](C)OC(=O)[C@H](CC(C)C)N(C)C(=O)[C@@H](Cc4ccccc4)OC(=O)[C@H](CC(C)C)N(C)C(=O)[C@@H](C)OC(=O)[C@H](CC(C)C)N(C)C3=O)cc2)s1 [Example 4-94],HcL3 MED (symbol after Ex#),[1]; [4],4-94^ (Examples with a carrot (^) have HcL3 MED values>1 and ≤3.3 μM)
Cc1ccc(Cc2ccc(C[C@H]3OC(=O)[C@H](CC(C)C)N(C)C(=O)[C@@H](C)OC(=O)[C@H](CC(C)C)N(C)C(=O)[C@@H](Cc4ccccc4)OC(=O)[C@H](CC(C)C)N(C)C(=O)[C@@H](C)OC(=O)[C@H](CC(C)C)N(C)C3=O)cc2)cn1 [Example 4-101],HcL3 MED (symbol after Ex#),[1]; [4],4-101^ (Examples with a carrot (^) have HcL3 MED values>1 and ≤3.3 μM)
CC(C)C[C@H]1C(=O)O[C@H](Cc2ccc(Cc3ncc(Cl)s3)cc2)C(=O)N(C)[C@@H](CC(C)C)C(=O)O[C@H](C)C(=O)N(C)[C@@H](CC(C)C)C(=O)O[C@H](Cc2ccccc2)C(=O)N(C)[C@@H](CC(C)C)C(=O)O[C@H](C)C(=O)N1C [Example 4-111],HcL3 MED (symbol after Ex#),[1]; [4],4-111^ (Examples with a carrot (^) have HcL3 MED values>1 and ≤3.3 μM)
Cc1nc(Cc2ccc(C[C@H]3OC(=O)[C@H](CC(C)C)N(C)C(=O)[C@@H](C)OC(=O)[C@H](CC(C)C)N(C)C(=O)[C@@H](Cc4ccccc4)OC(=O)[C@H](CC(C)C)N(C)C(=O)[C@@H](C)OC(=O)[C@H](CC(C)C)N(C)C3=O)cc2)sc1C [Example 4-115],HcL3 MED (symbol after Ex#),[1]; [4],4-115^ (Examples with a carrot (^) have HcL3 MED values>1 and ≤3.3 μM)
Cc1nnsc1Cc1ccc(C[C@H]2OC(=O)[C@H](CC(C)C)N(C)C(=O)[C@@H](C)OC(=O)[C@H](CC(C)C)N(C)C(=O)[C@@H](Cc3ccccc3)OC(=O)[C@H](CC(C)C)N(C)C(=O)[C@@H](C)OC(=O)[C@H](CC(C)C)N(C)C2=O)cc1 [Example 4-116],HcL3 MED (symbol after Ex#),[1]; [4],4-116^ (Examples with a carrot (^) have HcL3 MED values>1 and ≤3.3 μM)
CC(C)C[C@H]1C(=O)O[C@H](Cc2ccc(Cc3cnco3)cc2)C(=O)N(C)[C@@H](CC(C)C)C(=O)O[C@H](C)C(=O)N(C)[C@@H](CC(C)C)C(=O)O[C@H](Cc2ccccc2)C(=O)N(C)[C@@H](CC(C)C)C(=O)O[C@H](C)C(=O)N1C [Example 4-135],HcL3 MED (symbol after Ex#),[1]; [4],4-135^ (Examples with a carrot (^) have HcL3 MED values>1 and ≤3.3 μM)
